{
  "source": "paper PMC3876937",
  "about": "(Protein expression and purification, 2013)",
  "target": "T1, YGR257Cp (Mtm1p) (Saccharomyces cerevisiae, UniProt P53320)",
  "T1 sequence (P53320 1-366)": "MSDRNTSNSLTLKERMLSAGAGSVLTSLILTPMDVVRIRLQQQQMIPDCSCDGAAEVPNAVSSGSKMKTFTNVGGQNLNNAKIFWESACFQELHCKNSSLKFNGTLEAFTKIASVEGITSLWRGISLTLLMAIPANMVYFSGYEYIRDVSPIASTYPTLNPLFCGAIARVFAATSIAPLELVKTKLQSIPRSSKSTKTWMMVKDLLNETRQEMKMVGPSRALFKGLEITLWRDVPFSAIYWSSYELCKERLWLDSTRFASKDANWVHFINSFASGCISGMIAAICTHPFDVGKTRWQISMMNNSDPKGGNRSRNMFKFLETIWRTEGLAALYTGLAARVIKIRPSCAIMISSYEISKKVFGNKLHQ",
  "assay": "intrinsic tryptophan fluorescence quenching titration",
  "type": "binding",
  "data": [
    {"smiles": "Cc1ncc(COP(=O)(O)O)c(C=O)c1O", "note": "[pyridoxal 5′-phosphate]", "values": [
      {"measurement": "Kd", "value": "700 ± 20", "unit": "nM"}
    ]}
  ]
}
